pIC50: −log10 of the molar value.
Key:
[1] = biological target: T1, Broad substrate specificity ATP-binding cassette transporter ABCG2 (Homo sapiens, UniProt Q9UNQ0); experiment: TP_TRANSPORTER: efflux of Hoechst33342 in BCRP-expressing Sf9 cells; format: functional
T1 sequence (Q9UNQ0 whole entry): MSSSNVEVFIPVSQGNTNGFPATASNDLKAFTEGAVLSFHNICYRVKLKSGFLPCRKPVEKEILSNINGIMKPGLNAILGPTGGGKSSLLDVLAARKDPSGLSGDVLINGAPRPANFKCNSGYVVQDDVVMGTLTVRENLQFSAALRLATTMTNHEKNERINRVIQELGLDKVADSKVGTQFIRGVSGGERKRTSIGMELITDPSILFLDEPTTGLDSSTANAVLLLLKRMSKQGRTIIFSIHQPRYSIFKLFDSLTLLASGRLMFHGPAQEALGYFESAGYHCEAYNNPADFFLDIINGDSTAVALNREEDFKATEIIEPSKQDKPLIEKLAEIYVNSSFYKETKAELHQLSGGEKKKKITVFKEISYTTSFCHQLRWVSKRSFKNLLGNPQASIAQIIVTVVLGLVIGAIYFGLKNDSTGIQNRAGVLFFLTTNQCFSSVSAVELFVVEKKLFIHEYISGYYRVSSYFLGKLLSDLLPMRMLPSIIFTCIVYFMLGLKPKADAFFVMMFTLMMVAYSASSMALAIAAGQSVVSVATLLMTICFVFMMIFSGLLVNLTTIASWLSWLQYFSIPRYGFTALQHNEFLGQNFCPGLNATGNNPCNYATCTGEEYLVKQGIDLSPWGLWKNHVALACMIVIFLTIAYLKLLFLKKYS

[2] = biological target: T1, Broad substrate specificity ATP-binding cassette transporter ABCG2; experiment: TP_TRANSPORTER: stimulation of ATPase activity (0.1~1 u M) in BCRP-expressing Sf9 cells; format: functional, cell membranes, Membrane

| pIC50 [1] | Activity [2] | SMILES |
| --- | --- | --- |
| 6.70 | inhibitor [] | CC#CC(=O)Nc1ccc2ncnc(Nc3cccc(Br)c3)c2c1 |
|  | inhibitor [] | COc1cc2ncnc(Nc3ccc(F)c(Cl)c3)c2cc1OCCCN1CCOCC1 [GEFITINIB] |
